Like-named read-outs stand apart in the source and are kept apart here. K(Palm) = lysine with palmitoylated side chain (X = Palmitoyl); K(Ac) = lysine with acetylated side chain (X = Acetyl)
Legend:
[1] = ThT fluorescence binding to liposomal peptide constructs; settings: for ThT fluorescence emission (in words): emission at 485 nm, excitation 440 nm, PBS; for Kd: ThT binding, single site fit, read-out: App. Kd; for Kd / Bmax: liposomes DMPC/DMPG/cholesterol/MPLA 9:1:7:0.06, diluted 8-fold; for Bmax: ThT fluorescence at saturation; for Bmax (% rel. ACI-24): relative to ACI-24 (Palm1-15)
Protocol: (§1) • CD spectra were acquired on a Jasco-815 spectropolarimeter (Japan) with a 0.1 cm path length quartz cuvette at 23° C. Measurements were made with a 1.0 nm bandwidth and 0.5 nm resolution. A scan speed of 50 nm/min was employed with response time of 1 s. Solvent control spectra (4 scans) were averaged and subtracted from the average of 8 scans of each sample spectra. All spectra ([θ]obs, degrees) were smoothed after being converted to mean residue molar ellipticity ([θ], degrees cm^2 dmol^−1) with the equation [θ]=[θ]obs×(MRW/10lc), where MRW is the mean residue molecular weight (MW/number of residues), l is the optical path length (cm) and c is the concentration (g/cm^3). […] Spectra of the corresponding empty liposomes lacking peptide were subtracted. A2 ThT Fluorescence. • Fluorescence emission spectra were measured at 25° C. on a Tecan M200 spectrofluorimeter with an excitation of 440 nm. […] Data were fitted using non-linear regression analysis (SigmaPlot v10.0) assuming single-site binding saturation in order to calculate apparent Kd and maximal binding Bmax. A3 Disaggregation Assay Using ThT Fluorescence. • ZnCl2, FeCl3 or CuCl2 (2 μL, 1 mM in H2O) were incubated with liposomes diluted 4-fold in PBS (48 μL) for 2 h at 22° C. PBS (48 μL) with or without DPTA (0.4 mM) was added accordingly after 5 min. ThT (2 μL, 2.4 mM in H2O) was then added and fluorescence measured after a further 5 min. For disaggregation with small molecules, Rosmarinic acid, Tannic acid or Methylene Blue (2 μL, 2.7 mM in PBS) were added to 86 μL of liposomes diluted 8-fold with PBS. After 2 h incubation at RT, ThT (2 μL, 2.4 mM in H2O) was added and after 10 min. fluorescence was measured at 490 nm (Ex. 440 nm). A4 MAS-NMR Spectroscopy. • Experiments were conducted using a 3.2 mm triple-resonance (^1H, ^13C, ^15N) MAS probe (Bruker Biospin, Germany) at a static magnetic field of 16.4 T corresponding to 700 MHz proton resonance frequency. […] Experiments were recorded using 10 kHz MAS and at effective sample temperature of about 4° C. After a cross polarization (CP) step employing a contact time of 600 μs, the SPC5 pulse sequence was used for generation of DQ coherence, with a ^13C radio frequency (r.f.) field strength of 50 kHz and DQ excitation and reconversion time totaling 2.28 ms. Acquisition involved in each case 110K repetitions. An ^1H field strength of 83.3 kHz was used during excitation and SPINAL64 proton decoupling. A5 SPR Analysis of Peptide-Liposome Interactions. • Experiments were performed at 25° C. using 0.2 μm filtered and degassed PBS as running buffer. An L1 sensor chip (GE Healthcare, Sweden) was docked into a BIAcore 1000 instrument and the chip surface conditioned by injection of 50 μL of Zwittergent at 30 μL/min. Liposomes lacking peptide (‘empty’ liposomes) were then immobilized onto the sensor chip following 2 successive injections of 50 μL at 2 μL/min. Finally 50 μL of 50 mM NaOH was injected over the surface at 30 μL/min in order to render the surface more unilamellar. […] 50 μL of acetylated peptides solubilized in PBS were then injected over the surface over a range of concentrations at a flow rate of 30 μL/min, followed by dissociation with PBS for 300 s. After analysis of the interaction of different peptides, a fresh lipid bilayer was immobilized. A6 Dynamic Light Scattering. • Liposome samples were diluted 100-fold with PBS. Analysis was performed using a Zetasizer Nano (Malvern, USA) at 25° C. Data was analyzed with DTS 5.0 (Malvern) software by signal intensity in order to calculate the average liposome diameter and polydispersity index (PDI). A7 Cryo-EM. • Liposome sample was diluted 6-fold with PBS and then 3 μL was applied on glow discharged R 2/4 holey carbon grids (Quantifoil®), blotted off, and plunged frozen into liquid ethane under temperature and humidity controlled conditions using the Vitribot™ (FEI, The Netherlands).

[2] = CD spectroscopy of peptide secondary structure; format: physicochemical; settings: PBS; palmitoylated peptides in liposomes, acetylated peptides alone
Protocol: as §1

[3] = target: T1, β-sheet aggregates of liposomal Palm1-15 (ACI-24) (Homo sapiens, UniProt P05067); assay: Disaggregation assay using ThT fluorescence on ACI-24; format: biochemical; settings: for decrease of ThT fluorescence upon addition of metal: near stoichiometric metal:peptide (20 μM : 15 μM), 2 h incubation; for ThT fluorescence after incubation with β-sheet breaker small molecule: ACI-24, 2 h incubation
T1 construct: purchased Bachem (Switzerland); host or cells: chemical synthesis
Protocol: as §1

[4] = reported value; read-out: apparent Kd for the interaction of ThT with Aβ1-40; cited from earlier work

## H-K(X)-K(X)-QHHVEYGSDHRFEAD-K(X)-K(X)-OH [Acetyl15-1] ({K(Ac)-K(Ac)}-QHHVEYGSDHRFEAD-{K(Ac)-K(Ac)-OH}) [X = Acetyl]
[1]
  ThT fluorescence emission (in words): no fluorescence
[2]
  Secondary structure by CD spectroscopy: unstructured random coil conformations

## H-K(X)-K(X)-DAEFRHKSGYEVHHQ-K(X)-K(X)-OH ({K(Ac)-K(Ac)}-DAEFRHKSGYEVHHQ-{K(Ac)-K(Ac)-OH}) [Acetyl1-15(D7K), X = Acetyl]
[2]
  Secondary structure by CD spectroscopy: unstructured random coil conformations

## H-K(X)-K(X)-DAKFRHKSGYKVHHQ-K(X)-K(X)-OH ({K(Palm)-K(Palm)}-DAKFRHKSGYKVHHQ-{K(Palm)-K(Palm)-OH}) [Palm1-15(E3K, D7K, E11K), X = Palmitoyl]
[1]
  Kd: 10.1 µM
  Bmax: 24981
  Bmax (% rel. ACI-24): 69%

## H-K(X)-K(X)-DAAFRHKSGYEVHHQ-K(X)-K(X)-OH ({K(Palm)-K(Palm)}-DAAFRHKSGYEVHHQ-{K(Palm)-K(Palm)-OH}) [Palm1-15(E3A, D7K), X = Palmitoyl]
[1]
  Kd: 14.7 µM
  Bmax: 24854
  Bmax (% rel. ACI-24): 68%

## [Cl][Cu][Cl] [Cu(II), CuCl2]
[3]; ACI-24, ThT fluorescence, read-out: EC50 value for Cu(II) disaggregation
  EC50: ~3 µM
[3]
  decrease of ThT fluorescence upon addition of metal: ~75%

## H-K(X)-K(X)-DAKFRHKSGYEVHHQ-K(X)-K(X)-OH ({K(Ac)-K(Ac)}-DAKFRHKSGYEVHHQ-{K(Ac)-K(Ac)-OH}) [Acetyl1-15(E3K, D7K), X = Acetyl]
[2]
  Secondary structure by CD spectroscopy: unstructured random coil conformations

## H-K(X)-K(X)-DAEFR-K(X)-K(X)-OH [Palm1-5, X = Palmitoyl]
[1]
  Kd: 0.7 µM
  Bmax: 12653
  ThT fluorescence emission (in words): lower ThT fluorescence intensity
  Bmax (% rel. ACI-24): 35%
[2]
  Secondary structure by CD spectroscopy: mixed proportion of extended β-sheet and random coil conformations

## H-K(X)-K(X)-GHEAYHSVERFDDQH-K(X)-K(X)-OH [scPalm15] ({K(Palm)-K(Palm)}-GHEAYHSVERFDDQH-{K(Palm)-K(Palm)-OH}) [X = Palmitoyl]
[1]
  Kd: 7.9 µM
  Bmax: 13844
  Bmax (% rel. ACI-24): 38%
[2]
  Secondary structure by CD spectroscopy: β-sheet conformation

## H-K(X)-K(X)-DAAFRHKSGYEVHHQ-K(X)-K(X)-OH ({K(Ac)-K(Ac)}-DAAFRHKSGYEVHHQ-{K(Ac)-K(Ac)-OH}) [Acetyl1-15(E3A, D7K), X = Acetyl]
[2]
  Secondary structure by CD spectroscopy: unstructured random coil conformations

## H-K(X)-K(X)-GHEAYHSVERFDDQH-K(X)-K(X)-OH [scAcetyl15] ({K(Ac)-K(Ac)}-GHEAYHSVERFDDQH-{K(Ac)-K(Ac)-OH}) [X = Acetyl]
[1]
  ThT fluorescence emission (in words): no fluorescence
[2]
  Secondary structure by CD spectroscopy: unstructured random coil conformations

## H-K(X)-K(X)-DAKFRHKSGYEVHHQ-K(X)-K(X)-OH ({K(Palm)-K(Palm)}-DAKFRHKSGYEVHHQ-{K(Palm)-K(Palm)-OH}) [Palm1-15(E3K, D7K), X = Palmitoyl]
[1]
  Kd: 12.1 µM
  Bmax: 12567
  Bmax (% rel. ACI-24): 35%

## H-K(X)-K(X)-QHHVEYGSDHRFEAD-K(X)-K(X)-OH [Palm15-1] ({K(Palm)-K(Palm)}-QHHVEYGSDHRFEAD-{K(Palm)-K(Palm)-OH}) [X = Palmitoyl]
[1]
  Kd: 7.8 µM
  Bmax: 11023
  Bmax (% rel. ACI-24): 30%
[2]
  Secondary structure by CD spectroscopy: β-sheet conformation

## O=C(OC[C@H]1O[C@@H](OC(=O)c2cc(O)c(O)c(OC(=O)c3cc(O)c(O)c(O)c3)c2)[C@H](OC(=O)c2cc(O)c(O)c(OC(=O)c3cc(O)c(O)c(O)c3)c2)[C@@H](OC(=O)c2cc(O)c(O)c(OC(=O)c3cc(O)c(O)c(O)c3)c2)[C@@H]1OC(=O)c1cc(O)c(O)c(OC(=O)c2cc(O)c(O)c(O)c2)c1)c1cc(O)c(O)c(OC(=O)c2cc(O)c(O)c(O)c2)c1 [Tannic acid]
[3]
  ThT fluorescence after incubation with β-sheet breaker small molecule: decrease of fluorescence

## [Cl][Fe]([Cl])[Cl] [Fe(III), FeCl3]
[3]
  decrease of ThT fluorescence upon addition of metal: none

## H-K(X)-K(X)-DAEFRHKSGYEVHHQ-K(X)-K(X)-OH ({K(Palm)-K(Palm)}-DAEFRHKSGYEVHHQ-{K(Palm)-K(Palm)-OH}) [Palm1-15(D7K), X = Palmitoyl]
[1]
  Kd: 8.8 µM
  Bmax: 21197
  Bmax (% rel. ACI-24): 58%

## CN(C)c1ccc2nc3ccc(=[N+](C)C)cc-3sc2c1 [Methylene Blue]
[3]
  ThT fluorescence after incubation with β-sheet breaker small molecule: most efficient disaggregation

## H-K(X)-K(X)-DAKFRHKSGYKVHHQ-K(X)-K(X)-OH ({K(Ac)-K(Ac)}-DAKFRHKSGYKVHHQ-{K(Ac)-K(Ac)-OH}) [Acetyl1-15(E3K, D7K, E11K), X = Acetyl]
[2]
  Secondary structure by CD spectroscopy: unstructured random coil conformations

## [Cl-].[Cl-].[Zn+2] [Zn(II), ZnCl2]
[3]
  decrease of ThT fluorescence upon addition of metal: ~12%

## O=C(/C=C/c1ccc(O)c(O)c1)O[C@H](Cc1ccc(O)c(O)c1)C(=O)O [Rosmarinic acid]
[3]
  ThT fluorescence after incubation with β-sheet breaker small molecule: decrease of fluorescence

## Aβ1-40: β-amyloid peptide Aβ1-40
[4]
  Kd: 11 µM

Reference: patent publication US9289488B2, “Vaccine engineering” (AC Immune SA, priority 2010, dated 2016)
